Experimental data taken from patent publication US9499548B2, “Inhibitors of bruton's tyrosine kinase” (Hoffmann-La Roche Inc., priority 2012, dated 2016).

What follows are molecules tested on B cell receptor-mediated activation of B cells in human blood (CD69 expression) (assay: Inhibition of B cell activation in whole blood measured by CD69 expression). Conditions: anti-IgM stimulation, 20 hours, concentration decreasing by 50% the CD69-positive cells that are also CD20-positive.
Assay type: cell-based
Experimental: Inhibition of B Cell Activation in Whole Blood Measured by CD69 Expression
A procedure to test the ability of Btk inhibitors to suppress B cell receptor-mediated activation of B cells in human blood is as follows:
Human whole blood (HWB) is obtained from healthy volunteers, with the following restrictions: 24 hr drug-free, non-smokers. Blood is collected by venipuncture into Vacutainer tubes anticoagulated with sodium heparin. Test compounds are diluted to ten times the desired starting drug concentration in PBS (20×), followed by three-fold serial dilutions in 10% DMSO in PBS to produce a nine point dose-response curve. 5.5 μl of each compound dilution is added in duplicate to a 2 ml 96-well V bottom plate (Analytical Sales and Services, #59623-23); 5.5 μl of 10% DMSO in PBS is added to control and no-stimulus wells. HWB (100 μl) is added to each well, and after mixing the plates are incubated at 37 C, 5% CO2, 100% humidity for 30 minutes. Goat F(ab′)2 anti-human IgM (Southern Biotech, #2022-14) (10 μl of a 500 μg/ml solution, 50 μg/ml final concentration) is added to each well (except the no-stimulus wells) with mixing and the plates are incubated for an additional 20 hours.
At the end of the 20 hour incubation, samples are incubated with florescent-probe-labeled antibodies (15 μl PE Mouse anti-Human CD20, BD Pharmingen, #555623, and/or 20 ul APC Mouse anti-Human CD69, BD Pharmingen #555533) for 30 minutes, at 37 C, 5% CO2, 100% humidity. Included are induced control, unstained and single stains for compensation adjustments and initial voltage settings. Samples are then lysed with 1 ml of 1× Pharmingen Lyse Buffer (BD Pharmingen #555899), and plates are centrifuged at 1800 rpm for 5 minutes. Supernatants are removed via suction and the remaining pellets are lysed again with another 1 ml of 1× Pharmingen Lyse Buffer, and plates are spun down as before. Supernatants are aspirated and remaining pellets are washed in FACs buffer (PBS+1% FBS). After a final spin, the supernatants are removed and pellets are resuspended in 180 μl of FACs buffer. Samples are transferred to a 96 well plate suitable to be run on the HTS 96 well system on the BD LSR II flow cytometer.
Using appropriate excitation and emission wavelengths for the fluorophores used, data are acquired and percent positive cell values are obtained using Cell Quest Software. Results are initially analyzed by FACS analysis software (Flow Jo). […] The IC50 values are calculated using XLfit software version 3, equation 201.
Representative compound data for this assay are listed below in Table II.
With Cn1nc(-c2cccc(-n3ncc4cc(C(C)(C)C)ccc4c3=O)c2CO)cc(Nc2ccc(OC(C)(C)CN3CCC3)cn2)c1=O [Compound I-1, 2-(3-{5-[5-(2-Azetidin-1-yl-1,1-dimethyl-ethoxy)-pyridin-2-ylamino]-1-methyl-6-oxo-1,6-dihydro-pyridazin-3-yl}-2-hydroxymethyl-phenyl)-6-tert-butyl-2H-phthalazin-1-one] the IC50 was 0.006 µM.
Molecule CN1CCC(c2ccc(Nc3cc(-c4cccc(-n5ncc6cc(C(C)(C)C)ccc6c5=O)c4CO)nn(C)c3=O)nc2)CC1 [Compound I-2, 6-tert-Butyl-2-{2-hydroxymethyl-3-[1-methyl-5-(1′-methyl-1′,2′,3′,4′,5′,6′-hexahydro-[3,4′]bipyridinyl-6-ylamino)-6-oxo-1,6-dihydro-pyridazin-3-yl]-phenyl}-2H-phthalazin-1-one] has an IC50 of 0.01 µM.
Cn1nc(Nc2cc(-c3cccc(-n4ncc5cc(C(C)(C)C)ccc5c4=O)c3CO)nn(C)c2=O)cc1CN1CCC1 [Compound I-3, 2-{3-[5-(5-Azetidin-1-ylmethyl-1-methyl-1H-pyrazol-3-ylamino)-1-methyl-6-oxo-1,6-dihydro-pyridazin-3-yl]-2-hydroxymethyl-phenyl}-6-tert-butyl-2H-phthalazin-1-one] gave an IC50 of 0.03 µM.
With CN1CCC[C@H]1c1ccc(Nc2cc(-c3cccc(-n4ncc5cc(C(C)(C)C)ccc5c4=O)c3CO)nn(C)c2=O)nc1 [Compound I-4, 6-tert-Butyl-2-(2-hydroxymethyl-3-{1-methyl-5-[5-((S)-1-methyl-pyrrolidin-2-yl)-pyridin-2-ylamino]-6-oxo-1,6-dihydro-pyridazin-3-yl}-phenyl)-2H-phthalazin-1-one] the IC50 was 0.032 µM.
CN1CC[C@@H](c2ccc(Nc3cc(-c4cccc(-n5ncc6cc(C(C)(C)C)ccc6c5=O)c4CO)nn(C)c3=O)nc2)C1 [Compound I-5, 6-tert-Butyl-2-(2-hydroxymethyl-3-{1-methyl-5-[5-((S)-1-methyl-pyrrolidin-3-yl)-pyridin-2-ylamino]-6-oxo-1,6-dihydro-pyridazin-3-yl}-phenyl)-2H-phthalazin-1-one] was tested, and the IC50 was 0.035 µM.
Work on CN1CC[C@H](c2ccc(Nc3cc(-c4cccc(-n5ncc6cc(C(C)(C)C)ccc6c5=O)c4CO)nn(C)c3=O)nc2)C1 [Compound I-6, 6-tert-Butyl-2-(2-hydroxymethyl-3-{1-methyl-5-[5-((R)-1-methyl-pyrrolidin-3-yl)-pyridin-2-ylamino]-6-oxo-1,6-dihydro-pyridazin-3-yl}-phenyl)-2H-phthalazin-1-one] yielded an IC50 of 0.036 µM.
With CN1CCC(c2ccc(Nc3cc(-c4cccc(-n5ncc6cc(C(C)(C)C#N)ccc6c5=O)c4CO)nn(C)c3=O)nc2)CC1 [Compound I-7, 2-(2-{2-Hydroxymethyl-3-[1-methyl-5-(1′-methyl-1′,2′,3′,4′,5′,6′-hexahydro-[3,4′]bipyridinyl-6-ylamino)-6-oxo-1,6-dihydro-pyridazin-3-yl]-phenyl}-1-oxo-1,2-dihydro-phthalazin-6-yl)-2-methyl-propionitrile] the IC50 was 0.038 µM.
CN1CCn2nc(Nc3cc(-c4cccc(-n5ncc6cc(C(C)(C)C)ccc6c5=O)c4CO)nn(C)c3=O)cc2C1 [Compound I-8, 6-tert-Butyl-2-{2-hydroxymethyl-3-[1-methyl-5-(5-methyl-4,5,6,7-tetrahydro-pyrazolo[1,5-a]pyrazin-2-ylamino)-6-oxo-1,6-dihydro-pyridazin-3-yl]-phenyl}-2H-phthalazin-1-one] showed an IC50 of 0.042 µM.
CCN1CCC(c2ccc(Nc3cc(-c4cccc(-n5ncc6cc(C(C)(C)C)ccc6c5=O)c4CO)nn(C)c3=O)nc2)CC1 [Compound I-9, 6-tert-Butyl-2-{3-[5-(1′-ethyl-1′,2′,3′,4′,5′,6′-hexahydro-[3,4′]bipyridinyl-6-ylamino)-1-methyl-6-oxo-1,6-dihydro-pyridazin-3-yl]-2-hydroxymethyl-phenyl}-2H-phthalazin-1-one] was tested, and the IC50 was 0.045 µM.
Work on Cn1nc(-c2cccc(-n3ncc4cc(C(C)(C)C)ccc4c3=O)c2CO)cc(Nc2ccc(C(=O)N3CCOCC3)cn2)c1=O [Compound I-10, 6-tert-Butyl-2-(2-hydroxymethyl-3-{1-methyl-5-[5-(morpholine-4-carbonyl)-pyridin-2-ylamino]-6-oxo-1,6-dihydro-pyridazin-3-yl}-phenyl)-2H-phthalazin-1-one] yielded an IC50 of 0.047 µM.
Cn1nc(-c2cccc(-n3ncc4cc(C(C)(C)C#N)ccc4c3=O)c2CO)cc(Nc2ccc(OC(C)(C)CN3CCC3)cn2)c1=O [Compound I-11, 2-[2-(3-{5-[5-(2-Azetidin-1-yl-1,1-dimethyl-ethoxy)-pyridin-2-ylamino]-1-methyl-6-oxo-1,6-dihydro-pyridazin-3-yl}-2-hydroxymethyl-phenyl)-1-oxo-1,2-dihydro-phthalazin-6-yl]-2-methyl-propionitrile] showed an IC50 of 0.135 µM.
For Cn1nc(-c2cccc(-n3ncc4cc(C(C)(C)C)ccc4c3=O)c2CO)cc(Nc2ccc(OC(C)(C)CNCCCO)cn2)c1=O [Compound I-12, 6-tert-Butyl-2-[2-hydroxymethyl-3-(5-{5-[2-(3-hydroxy-propylamino)-1,1-dimethyl-ethoxy]-pyridin-2-ylamino}-1-methyl-6-oxo-1,6-dihydro-pyridazin-3-yl)-phenyl]-2H-phthalazin-1-one], the IC50 was 0.187 µM.
Cn1nc(-c2cccc(-n3ncc4cc(C(C)(C)C)ccc4c3=O)c2CO)cc(Nc2ccc(C3CCN(C4COC4)CC3)cn2)c1=O [Compound I-13, 6-tert-Butyl-2-{2-hydroxymethyl-3-[1-methyl-5-(1′-oxetan-3-yl-1′,2′,3′,4′,5′,6′-hexahydro-[3,4′]bipyridinyl-6-ylamino)-6-oxo-1,6-dihydro-pyridazin-3-yl]-phenyl}-2H-phthalazin-1-one] was tested, and the IC50 was 0.188 µM.
Cn1nc(-c2cccc(-n3ncc4cc(C(C)(C)C)ccc4c3=O)c2CO)cc(Nc2ccc(OC(C)(C)CN3CC(F)(F)C3)cn2)c1=O [Compound I-14, 6-tert-Butyl-2-[3-(5-{5-[2-(3,3-difluoro-azetidin-1-yl)-1,1-dimethyl-ethoxy]-pyridin-2-ylamino}-1-methyl-6-oxo-1,6-dihydro-pyridazin-3-yl)-2-hydroxymethyl-phenyl]-2H-phthalazin-1-one] gave an IC50 of 0.573 µM.
CN1CCC(c2ccc(Nc3cc(-c4cccc(N5CCc6cc(C(C)(C)C#N)ccc6C5=O)c4CO)nn(C)c3=O)nc2)CC1 [Compound I-15, 2-(2-{2-Hydroxymethyl-3-[1-methyl-5-(1′-methyl-1′,2′,3′,4′,5′,6′-hexahydro-[3,4′]bipyridinyl-6-ylamino)-6-oxo-1,6-dihydro-pyridazin-3-yl]-phenyl}-1-oxo-1,2,3,4-tetrahydro-isoquinolin-6-yl)-2-methyl-propionitrile] gave an IC50 of 0.198 µM.
